Molecular target: Aβ(1–42) oligomers (Homo sapiens, UniProt P05067)
Assay: Short time oligomer dissociation assay
Assay type: biochemical
Conditions: 2h; 50 µM, 25 µM and 12.5 µM

Chain of Aβ(1–42) oligomers (P05067 672-713): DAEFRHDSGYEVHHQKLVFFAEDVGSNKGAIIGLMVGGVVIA

O=C(O)c1cc(O)ccc1O [2,5-dihydroxybenzoic acid]
Oligomer dissociation in short time assay: does result in disassembly
